Reference: patent US10059704B2, “1,4-disubstituted 1,2,3-triazoles, methods for preparing same, and diagnostic and therapeutic uses thereof” (CENTRE NATIONAL DE LA RECHERCHE SCIENTIFIQUE (C.N.R.S.), priority 2011, dated 2018)
Read-outs that look alike come from different tables or passages of the source.

Key:
nicotinic receptors Rα7 = nicotinic receptors Rα7 (Rattus norvegicus, UniProt Q05941); experiment: biochemical; type: binding
[1] = Solubility (solvents listed in table); settings: solvents in which the compound is soluble, in words
[2] = rat frontal cortex membranes, [125I]α-bungarotoxin 2 nM, 22° C., 3 hours, Ki calculated from IC50 (Cheng and Prussof), read-out: Activity on Rα7

Chain of nicotinic receptors Rα7 (Q05941 23-502): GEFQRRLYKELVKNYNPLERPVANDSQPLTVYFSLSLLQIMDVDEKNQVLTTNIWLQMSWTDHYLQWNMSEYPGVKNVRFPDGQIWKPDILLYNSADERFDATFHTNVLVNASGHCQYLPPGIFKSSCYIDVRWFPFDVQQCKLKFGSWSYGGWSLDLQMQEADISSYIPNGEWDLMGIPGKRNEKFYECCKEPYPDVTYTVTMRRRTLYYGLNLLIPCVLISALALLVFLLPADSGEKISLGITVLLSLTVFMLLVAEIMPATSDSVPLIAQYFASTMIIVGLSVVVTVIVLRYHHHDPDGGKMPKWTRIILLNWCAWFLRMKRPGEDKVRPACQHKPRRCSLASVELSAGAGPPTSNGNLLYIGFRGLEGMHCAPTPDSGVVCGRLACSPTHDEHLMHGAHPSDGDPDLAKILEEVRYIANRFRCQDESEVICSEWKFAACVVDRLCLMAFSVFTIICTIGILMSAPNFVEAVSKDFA

Row | Structure (SMILES) | Ki (nicotinic receptors Rα7) [nM] | melting point [°C] | Solubility [1] | Ki (nicotinic receptors Rα7; [2]) [nM]
1 | CN1[C@@H]2CC[C@H]1C[C@@H](n1cc(-c3ccccc3)nn1)C2 [Compound 16, Endo-3-(4-phenyl-1H-1,2,3-triazol-1-yl)tropane] | 168 ± 68 | 135 | M = 268.36 g/mol C16H20N4 CHCl3 − DMSO | 
2 | CN1[C@@H]2CC[C@H]1C[C@@H](n1cc(-c3ccc(F)cc3)nn1)C2 [Compound 17, Endo-3(4-(4-fluorophenyl)-1H-1,2,3-triazol-1-yl)tropane] | 210 ± 31 | 254 | M = 286.35 g/mol C16H19FN4 CHCl3 − DMSO | 
3 | COc1ccc(-c2cn([C@H]3C[C@H]4CC[C@@H](C3)N4C)nn2)cc1 [Compound 19, Endo-3-(4-(4-methoxyphenyl)-1H-1,2,3-triazol-1-yl)tropane] | 283 ± 76 | 118 | M = 298.38 g/mol C17H22N4O CHCl3 − DMSO | 
4 | CN1[C@@H]2CC[C@H]1C[C@@H](n1cc(-c3cccc(F)c3)nn1)C2 [Compound 22, Endo-3-(4-(3-fluorophenyl)-1H-1,2,3-triazol-1-yl)tropane] | 16 ± 9 | 124 | M = 286.35 g/mol C16H19FN4 CHCl3 − DMSO | 
5 | CN1[C@@H]2CC[C@H]1C[C@@H](n1cc(-c3ccc(Cl)c(Cl)c3)nn1)C2 [Compound 24, Endo-3-(4-(3,4-dichlorophenyl)-1H-1,2,3-triazol-1-yl)tropane] | 110 ± 36 | 136 | M = 337.25 g/mol C16H18Cl2N4 CHCl3 − DMSO | 
6 | CN1[C@@H]2CC[C@H]1C[C@@H](n1cc(-c3ccc4sccc4c3)nn1)C2 [Compound 25, Endo-3-(4-(1-Benzothiophen-5-yl)-1H-1,2,3-triazol-1-yl)tropane] | 14 ± 4 | 163 | M = 324.44 g/mol C18H20N4S CHCl3 − DMSO | 
7 | CN1[C@@H]2CC[C@H]1C[C@@H](n1cc(-c3ccc4occc4c3)nn1)C2 [Compound 26, Endo-3-(4-(1-benzofuran-5-yl)-1H-1,2,3-triazol-1-yl)topane] | 13 ± 5 | 104 | M = 308.38 g/mol C18H20N4O CHCl3 − DMSO | 
8 | CN1[C@@H]2CC[C@H]1C[C@@H](n1cc(-c3ccc(Br)s3)nn1)C2 [Compound 27, Endo-3-(4-(5-bromothiophen-2-yl)-1H-1,2,3-triazol-1-yl)tropane] | 275 ± 43 | 138 | M = 353.28 g/mol C14H17BrN4S CHCl3 − DMSO | 
9 | COc1ccc(-c2cn([C@H]3CN4CCC3CC4)nn2)cc1 [Compound 46, (R)-3-(4-(4-Methoxyphenyl)-1H-1,2,3-triazol-1-yl)quinuclidine] |  | 122 | M = 284.36 g/mol C16H20N4O DMSO | 
10 | Fc1ccc(-c2cn([C@@H]3CN4CCC3CC4)nn2)cc1 [Compound 57, (S)-3-(4-(4-Fluorophenyl)-1H-1,2,3-triazol-1-yl)quinuclidine] |  | 139 |  | 114 ± 38
11 | Nc1c(-c2ccccc2)nnn1[C@H]1CN2CCC1CC2 [Compound 60, (R)-4-Phenyl-1-(quinuclidin-3-yl)-1H-1,2,3-triazol-5-amine] | 11 ± 4 | 120 |  | 
12 | c1csc(-c2ccc(-c3cn([C@H]4CN5CCC4CC5)nn3)s2)c1 [Compound 61, (R)-3-(4-(2,7-Bithiophen-5-yl)-1H-1,2,3-triazol-1-yl)quinuclidine] |  | 182 |  | 20 ± 2
13 | c1coc(-c2ccc(-c3cn([C@H]4CN5CCC4CC5)nn3)s2)c1 [Compound 62, (R)-3-(4-(5-(Furan-2-yl)thiophen-2-yl)-1H-1,2,3-triazol-1-yl)quinuclidine] |  | 180 |  | 10 ± 1
14 | OCc1ccc(-c2ccc(-c3cn([C@H]4CN5CCC4CC5)nn3)s2)cc1 [Compound 63, (R)-(4-(5-(1-(quinuclidin-3-yl)-1H-1,2,3-triazol-4-yl)thiophen-2-yl)phenyl)methanol] |  | 253 |  | 0.6 ± 0.2
15 | FC1(c2cn(-c3ccc(Br)cc3)nn2)CN2CCC1CC2 (centres unmarked) [Compound 71, 3-Fluoro-3-(1-(4-bromophenyl)-1H-1,2,3-triazol-4-yl)quinuclidine] |  | 127 |  | 150 ± 10
16 | Brc1cccc(-c2cn([C@H]3CN4CCC3CC4)nn2)c1 [Compound 83, (R)-3-[4-(3-bromophenyl)-1H-1,2,3-triazol-1-yl]quinuclidine] | 11 | 188 |  | 
17 | OCc1ccc(-c2ccc(-c3cn([C@H]4CN5CCC4CC5)nn3)o2)cc1 [Compound 84, (R)-[4-[5-[1-[quinuclidin-3-yl]-1H-1,2,3-triazol-4-yl]-2-furyl]-phenyl]-methanol] | 6 | 209 |  | 
18 | OCc1cccc(-c2csc(-c3cn([C@H]4CN5CCC4CC5)nn3)c2)c1 [Compound 89, (R)-[3-[5-[1-[quinuclidin-3-yl]-1H-1,2,3-triazol-4-yl]-3-thienyl]phenyl]methanol] |  | 211 |  | 13

Row | Structure (SMILES) | Ki (nicotinic receptors Rα7) [nM] | melting point [°C] | Solubility [1] | Ki (nicotinic receptors Rα7; [2]) [nM]
19 | OCc1ccc(-c2coc(-c3cn([C@H]4CN5CCC4CC5)nn3)c2)cc1 [Compound 90, (R)-[4-[5-[1-[quinuclidin-3-yl]-1H-1,2,3-triazol-4-yl]-3-furyl]phenyl]methanol] | 9 | 202 |  | 
20 | Fc1ccc(-c2coc(-c3cn([C@H]4CN5CCC4CC5)nn3)c2)cn1 [Compound 91, (R)-3-[4-[4-(6-fluoro-3-pyridyl)-2-furyl]-1H-1,2,3-triazol-1-yl]quinuclidine] | 117 | 210 |  | 
21 | OCc1cccc(-c2coc(-c3cn([C@H]4CN5CCC4CC5)nn3)c2)c1 [Compound 92, (R)-[3-[5-[1-[quinuclidin-3-yl]-1H-1,2,3-triazol-4-yl]-3-furyl]phenyl]methanol] | 115 | 212 |  | 
22 | OCc1ccc(-c2ccc(-c3cn([C@H]4CN5CCC4CC5)nn3)cc2)cc1 [Compound 93, (R)-[4-[4-[1-[quinuclidin-3-yl]-1H-1,2,3-triazol-4-yl]phenyl]phenyl]methanol] | 137 | 250 |  | 
23 | OCc1cccc(-c2ccc(-c3cn([C@H]4CN5CCC4CC5)nn3)cc2)c1 [Compound 95, (R)-[3-[4-[1-[quinuclidin-3-yl]-1H-1,2,3-triazol-4-yl]phenyl]phenyl]methanol] |  | 207 |  | 100
24 | c1csc(-c2ccc(-c3cn([C@H]4CN5CCC4CC5)nn3)cc2)c1 [Compound 96, (R)-3-[4-[4-(2-thienyl)phenyl]-1H-1,2,3-triazol-1-yl]quinuclidine] | 135 | 214 |  | 
25 | O=Cc1ccc(-c2ccc(-c3cn([C@H]4CN5CCC4CC5)nn3)cc2)s1 [Compound 97, (R)-5-[4-[1-[quinuclidin-3-yl]-1H-1,2,3-triazol-4-yl]phenyl]thiophene-2-carbaldehyde] | 90 to 120 | 228 |  | 
26 | OCc1ccc(-c2cccc(-c3cn([C@H]4CN5CCC4CC5)nn3)c2)cc1 [Compound 98, (R)-[4-[3-[1-[quinuclidin-3-yl]-1H-1,2,3-triazol-4-yl]phenyl]phenyl]methanol] | 105 | 214 |  | 
27 | OCc1cccc(-c2cccc(-c3cn([C@H]4CN5CCC4CC5)nn3)c2)c1 [Compound 99, (R)-[3-[3-[1-[quinuclidin-3-yl]-1H-1,2,3-triazol-4-yl]phenyl]phenyl]methanol] |  | 201 |  | 1.4
28 | Fc1ccc(-c2cccc(-c3cn([C@H]4CN5CCC4CC5)nn3)c2)cn1 [Compound 100, (R)-3-[4-[3-(6-fluoro-3-pyridyl)phenyl]-1H-1,2,3-triazol-1-yl]quinuclidine] |  | 164 |  | 16
29 | O=Cc1ccc(-c2cccc(-c3cn([C@H]4CN5CCC4CC5)nn3)c2)s1 [Compound 101, (R)-5-[3-[1-[quinuclidin-3-yl]-1H-1,2,3-triazol-4-yl]phenyl]thiophene-2-carbaldehyde] | 7 | 150 |  | 
30 | c1cc(-c2ccc(-c3cn([C@H]4CN5CCC4CC5)nn3)s2)ccc1CN1CCOCC1 [Compound 102] |  | 222 |  | 0.9
31 | c1cc(-c2ccc(-c3cn([C@H]4CN5CCC4CC5)nn3)s2)ccc1CN1CCCCC1 [Compound 103, (R)-3-[4-[5-[4-(1-piperidylmethyl)phenyl]-2-thienyl]-1H-1,2,3-triazol-1-yl]quinuclidine] |  | 230 |  | 0.3
32 | CN1CCN(Cc2ccc(-c3ccc(-c4cn([C@H]5CN6CCC5CC6)nn4)s3)cc2)CC1 [Compound 104, (R)-3-[4-[5-[4-[(4-methylpiperazin-1-yl)methyl]phenyl]-2-thienyl]-1H-1,2,3-triazol-1-yl]quinuclidine] |  | 214 |  | 0.3
33 | COC(=O)c1ccc(-c2ccc(-c3cn([C@H]4CN5CCC4CC5)nn3)s2)cc1F [Compound 105, Methyl-2-fluoro-4-[5-[1-[(3R)-quinuclidin-3-yl]-1H-1,2,3-triazol-4-yl]-2-thienyl]benzoate] | 85 | 250 |  | 
34 | FCc1ccc(-c2ccc(-c3cn([C@H]4CN5CCC4CC5)nn3)s2)cc1 [Compound 112, (R)-3-[4-[5-[4-(fluoromethyl)phenyl]-2-thienyl]-1H-1,2,3-triazol-1-yl]quinuclidine] |  | 199 |  | 5
35 | OCc1ccc(-c2ccc(-c3cn([C@H]4CN5CCC4CC5)nn3)cc2)s1 [Compound 114, (R)-[5-[4-[1-[quinuclidin-3-yl]-1H-1,2,3-triazol-4-yl]phenyl]-2-thienyl]methanol] | 160 | 234 |  | 
36 | OCc1ccc(-c2cccc(-c3cn([C@H]4CN5CCC4CC5)nn3)c2)s1 [Compound 115, (R)-[5-[3-[1-[quinuclidin-3-yl]-1H-1,2,3-triazol-4-yl]phenyl]-2-thienyl]-methanol] | 0.5 | 176 |  | 
